Columns and labels:
MDM = test: LDH cytotoxicity assay in MDM; format: cell-based, human; conditions: 24 h, 400 µM
[1] = Blood and tissue DTG levels and animal weights in hu-PBL-NSG mice; format: in vivo; conditions: NOD/scid-IL-2Rγc^null (NSG), mouse, intramuscular, 45 mg/kg DTG-eq.; kidney, day 39; read-out: tissue DTG level
Procedure: NOD/scid-IL-2Rγc^null (NSG) mice (6–7 weeks of age; Jackson Labs, Bar Harbor, ME) were administered a single IM injection in a volume of 40 µL/25 g mouse of NDTG or NMDTG at a concentration of 45 mg/kg DTG-eq. on day 0 for measures of relative viral restriction. Mice were then reconstituted with 25 × 10^6 human peripheral blood lymphocytes (hu-PBL) per mouse 4 or 19 days post drug treatment by IP injection. Next, mice were challenged 10 days post hu-PBL reconstitution with HIV-1ADA at 14 or 29 days post drug treatment by IP injection at a TCID50 of 2 × 10^4 per mouse. […] Plasma was saved for viral load (HIV-1 RNA) quantitation using the Roche Amplicor and Taqman-48 system [HIV-1 kit V2.0 according to the manufacturer’s instructions (Indianapolis, IN)]. Blood and tissue drug concentrations were determined by UPLC-MS/MS as described above. […] The number of HIV-1p24+ and HLA-DP/DQ/DR+ cells per section were counted and expressed as percentage of HIV-1p24+ cells/HLA-DP/DQ/DR+ cells per section. […] Plasma was used for quantitative viral load (measurements of HIV-1 RNA) using the Roche Amplicor and Taqman-48 system. Blood and tissue drug concentrations were determined by UPLC-MS/MS as described above. […]

C[C@@H]1CCO[C@H]2Cn3cc(C(=O)NCc4ccc(F)cc4F)c(=O)c(O)c3C(=O)N12 [DTG, dolutegravir]
cytotoxicity by LDH (MDM): changes in cell vitality | concentration at 39 days [1]: 4.1 ng/g

— paper PMC5799307, “Creation of a long-acting nanoformulated dolutegravir” (Nature Communications, 2018)
